These results are taken from ChEMBL document CHEMBL5728961, “Compounds useful for treating gastrointestinal tract disorders” (2022).

Bounds are passed on as bounds.

Assay [1] deals with T1, Sodium/hydrogen exchanger 3 (Homo sapiens, UniProt P48764).
T1 sequence (P48764 whole entry): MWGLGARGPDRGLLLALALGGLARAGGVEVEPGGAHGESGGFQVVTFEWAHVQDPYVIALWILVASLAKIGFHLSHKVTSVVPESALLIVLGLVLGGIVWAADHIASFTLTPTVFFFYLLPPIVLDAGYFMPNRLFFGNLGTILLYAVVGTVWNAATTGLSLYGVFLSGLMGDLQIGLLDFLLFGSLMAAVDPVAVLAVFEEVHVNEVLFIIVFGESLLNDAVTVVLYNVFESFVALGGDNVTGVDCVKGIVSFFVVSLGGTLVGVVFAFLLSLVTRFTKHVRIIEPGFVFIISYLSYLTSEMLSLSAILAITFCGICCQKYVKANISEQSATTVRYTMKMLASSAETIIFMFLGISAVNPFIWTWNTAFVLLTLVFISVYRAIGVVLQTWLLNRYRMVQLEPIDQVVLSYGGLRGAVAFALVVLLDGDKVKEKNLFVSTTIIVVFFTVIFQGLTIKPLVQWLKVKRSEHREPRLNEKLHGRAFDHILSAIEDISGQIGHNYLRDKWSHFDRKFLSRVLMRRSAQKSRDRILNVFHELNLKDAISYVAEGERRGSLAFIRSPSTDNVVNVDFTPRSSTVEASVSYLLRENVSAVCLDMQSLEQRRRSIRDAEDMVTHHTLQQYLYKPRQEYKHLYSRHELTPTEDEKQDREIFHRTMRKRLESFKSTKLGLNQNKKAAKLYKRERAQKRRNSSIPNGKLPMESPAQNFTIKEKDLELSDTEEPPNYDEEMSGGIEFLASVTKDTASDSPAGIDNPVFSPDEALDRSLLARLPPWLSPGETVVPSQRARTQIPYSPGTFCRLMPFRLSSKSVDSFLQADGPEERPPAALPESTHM
Nature of the assay: Cell-Based Assay of NHE-3 Activity (Pre-Incubation Inhibition): Rat and human NHE-3-mediated Na+-dependent H+ antiport was measured using a modification of the pH sensitive dye method originally reported by Paradiso (Proc. Natl. Acad. Sci. USA. (1984) 81(23): 7436-7440). PS120 fibroblasts stably expressing human NHE3 and NHERF2 were obtained from Mark Donowitz (Baltimore, Md.). Opossum kidney (OK) cells were obtained from the ATCC and propagated per their instructions. The rat NHE-3 gene (GenBank M85300) was introduced into OK cells via electroporation, and cells were seeded into 96 well plates and grown overnight. Medium was aspirated from the wells then incubated for 30 min at 37° C. with NH4Cl-HEPES buffer (20 mM NH4Cl, 80 mM NaCl, 50 mM HEPES, 5 mM KCl, 2 mM CaCl2, 1 mM MgCl2, pH 7.4) containing 5 μM BCECF-AM. Cells were washed once with Ammonium free, Na+-free HEPES (100 mM choline, 50 mM HEPES, 10 mM glucose, 5 mM KCl, 2 mM CaCl2, 1 mM MgCl2, pH 7.4) and incubated in the same buffer for 10 minutes at room temperature to lower intracellular pH with 0-30 μM test compound. […] Changes in intracellular pH were monitored using a FLIPR Tetra® (Molecular Devices, Sunnyvale, Calif.) by excitation at λex 439 to 505 nm, and measuring BCECF fluorescence at λem 538 nm. The initial rate of the fluorescence ratio change was used as a measure of NHE-mediated Na+/H+ activity, and reported as the change in fluorescence ratio per minute.

The target in assay [2] is T1, Sodium/hydrogen exchanger 3. As to the kind of experiment: Cell-Based Assay of NHE-3 Activity (Persistent Inhibition): The ability of compounds to inhibit human and rat NHE-3-mediated Na+ dependent H+ antiport after application and washout was measured using a modification of the pH sensitive dye method described above. PS120 fibroblasts stably expressing human NHE3 and NHERF2 were obtained from Mark Donowitz (Baltimore, Md.). Opossum kidney (OK) cells were obtained from the ATCC and propagated per their instructions. The rat NHE-3 gene was introduced into OK cells via electroporation, and cells were seeded into 96 well plates and grown overnight. Medium was aspirated from the wells, cells were washed once with NaCl-HEPES buffer (100 mM NaCl, 50 mM HEPES, 10 mM glucose, 5 mM KCl, 2 mM CaCl2, 1 mM MgCl2, pH 7.4), then overlayed with NaCl-HEPES buffer containing 0-30 μM test compound. After a 60 min incubation at room temperature, the test drug containing buffer was aspirated from the cells. Following aspiration, cells were washed once with NaCl-HEPES buffer without drug, then incubated for 30 min at 37° C. with NH4Cl-HEPES buffer (20 mM NH4Cl, 80 mM NaCl, 50 mM HEPES, 5 mM KCl, 2 mM CaCl2, 1 mM MgCl2, pH 7.4) containing 5 μM BCECF-AM. Cells were washed once with Ammonium free, Na+-free HEPES (100 mM choline, 50 mM HEPES, 10 mM glucose, 5 mM KCl, 2 mM CaCl2, 1 mM MgCl2, pH 7.4) and incubated in the same buffer for 10 minutes at room temperature to lower intracellular pH. NHE-3-mediated recovery of neutral intracellular pH was initiated ([…]) by addition of Na-HEPES buffer. […] Changes in intracellular pH were monitored using a FLIPR Tetra® (Molecular Devices, Sunnyvale, Calif.) by excitation at λex 439 to 505 nm, and measuring BCECF fluorescence at λem 538 nm. The initial rate of the fluorescence ratio change was used as a measure of NHE-mediated Na+/H+ activity, and reported as the change in fluorescence ratio per minute.

`Cc1cc(S(=O)(=O)N2CC[C@@H](COCCOCCNC(=O)NCCCCNC(=O)NCCOCCOC[C@@H]3CCN(S(=O)(=O)c4ccc(O[C@H]5c6cc(Cl)cc(C#N)c6C[C@@H]5N(C)C)c(C)c4)C3)C2)ccc1O[C@H]1c2cc(Cl)cc(C#N)c2C[C@@H]1N(C)C`: the IC50 in assay [1] and in assay [2] was less than 100 nM each time.

For `CN(C)[C@H]1Cc2c(Cl)cc(Cl)cc2[C@@H]1Oc1ccc(S(=O)(=O)NCCCCCCCCNC(=O)NCCCCNC(=O)NCCCCCCCCNS(=O)(=O)c2ccc(O[C@H]3c4cc(Cl)cc(Cl)c4C[C@@H]3N(C)C)cc2)cc1`, the IC50 in assay [1] and in assay [2] was more than 1000 nM each time.

For the compound `N[C@@H]1CCCN([C@H]2Cc3c(Cl)cc(Cl)cc3[C@@H]2Oc2ccc(S(=O)(=O)NCCCCCCn3cc(CNC(=O)NCCCCNC(=O)NCc4cn(CCCCCCNS(=O)(=O)c5ccc(O[C@H]6c7cc(Cl)cc(Cl)c7C[C@@H]6N6CCC[C@@H](N)C6)cc5)nn4)nn3)cc2)C1`, the IC50 in assay [1] and in assay [2] was less than 100 nM throughout.

With `O=C(NCCCCNC(=O)NCCOCCOCCNS(=O)(=O)c1ccc(O[C@H]2c3cc(Cl)cc(Cl)c3C[C@@H]2N2C3CCCC2CC3)cc1)NCCOCCOCCNS(=O)(=O)c1ccc(O[C@H]2c3cc(Cl)cc(Cl)c3C[C@@H]2N2C3CCCC2CC3)cc1`, the IC50 in assay [1] and in assay [2] was less than 100 nM throughout.

`N[C@@H]1CCCN([C@H]2Cc3c(Cl)cc(Cl)cc3[C@@H]2Oc2ccc(S(=O)(=O)NCCOCCOCCNC(=O)NCCCCNC(=O)NCCOCCOCCNS(=O)(=O)c3ccc(O[C@H]4c5cc(Cl)cc(Cl)c5C[C@@H]4N4CCC[C@@H](N)C4)c(F)c3)cc2F)C1`: the IC50 in assay [1] and in assay [2] was less than 100 nM in each case.

Turning to `Cc1cc(Cl)cc2c1C[C@H](N(C)C)[C@H]2Oc1ccc(S(=O)(=O)NCCOCCOCCNC(=O)NCCCCNC(=O)NCCOCCOCCNS(=O)(=O)c2ccc(O[C@H]3c4cc(Cl)cc(C)c4C[C@@H]3N(C)C)c(F)c2)cc1F`, the IC50 in assay [1] and in assay [2] was less than 100 nM throughout.

On to `Cc1cc(S(=O)(=O)NCCCCCCCCNC(=O)NCCCCNC(=O)NCCCCCCCCNS(=O)(=O)c2ccc(O[C@H]3c4cc(Cl)cc(Cl)c4C[C@@H]3N(C)C)c(C)c2)ccc1O[C@H]1c2cc(Cl)cc(Cl)c2C[C@@H]1N(C)C`, for which the IC50 in assay [1] and in assay [2] was more than 1000 nM in each case.

On to `Cc1cc(Cl)cc2c1C[C@H](N1CCNCC1)[C@H]2Oc1ccc(S(=O)(=O)NCCOCCOCCNC(=O)NCCCCNC(=O)NCCOCCOCCNS(=O)(=O)c2ccc(O[C@H]3c4cc(Cl)cc(C)c4C[C@@H]3N3CCNCC3)cc2)cc1`, for which the concentration for half-maximal inhibition (IC50) in assay [1] and in assay [2] was less than 100 nM in each case.

Turning to `CN(C)[C@@H]1CCCN([C@H]2Cc3c(C#N)cc(Cl)cc3[C@@H]2Oc2ccc(S(=O)(=O)NCCOCCOCCNC(=O)NCCCCNC(=O)NCCOCCOCCNS(=O)(=O)c3ccc(O[C@H]4c5cc(Cl)cc(C#N)c5C[C@@H]4N4CCC[C@@H](N(C)C)C4)c(F)c3)cc2F)C1`, the IC50 in assay [1] and in assay [2] was more than 1000 nM throughout.

For `Cc1cc(S(=O)(=O)NCCOCCOCCNC(=O)NCCCCNC(=O)NCCOCCOCCNS(=O)(=O)c2ccc(O[C@H]3c4cc(Cl)cc(C)c4C[C@@H]3N3CCC[C@@H](N)C3)c(C)c2)ccc1O[C@H]1c2cc(Cl)cc(C)c2C[C@@H]1N1CCC[C@@H](N)C1`, the IC50 in assay [1] and in assay [2] was less than 100 nM in each case.

In the case of `Cc1cc(Cl)cc2c1C[C@H](N1CCC[C@@H](N)C1)[C@H]2Oc1ccc(S(=O)(=O)NCCOCCOCCNC(=O)NCCCCNC(=O)NCCOCCOCCNS(=O)(=O)c2ccc(O[C@H]3c4cc(Cl)cc(C)c4C[C@@H]3N3CCC[C@@H](N)C3)c(F)c2)cc1F`, the 50% inhibitory concentration (IC50) in assay [1] and in assay [2] was less than 100 nM each time.

As to `N[C@@H]1CCCN([C@H]2Cc3c(Cl)cc(Cl)cc3[C@@H]2Oc2c(F)cc(S(=O)(=O)NCCOCCOCCNC(=O)NCCCCNC(=O)NCCOCCOCCNS(=O)(=O)c3cc(F)c(O[C@H]4c5cc(Cl)cc(Cl)c5C[C@@H]4N4CCC[C@@H](N)C4)c(F)c3)cc2F)C1`, the IC50 in assay [1] and in assay [2] was less than 100 nM in each case.

In the case of `Cc1cc(S(=O)(=O)NCCOCCOCCNC(=O)NCCCCNC(=O)NCCOCCOCCNS(=O)(=O)c2ccc(O[C@H]3c4cc(Cl)cc(C#N)c4C[C@@H]3N3CCC[C@@H](N)C3)c(C)c2)ccc1O[C@H]1c2cc(Cl)cc(C#N)c2C[C@@H]1N1CCC[C@@H](N)C1`, the IC50 in assay [1] and in assay [2] was more than 1000 nM throughout.

As to `Cc1cc(O[C@H]2c3cc(Cl)cc(Cl)c3C[C@@H]2N2CCC[C@@H](N)C2)c(F)cc1S(=O)(=O)NCCOCCOCCNC(=O)NCCCCNC(=O)NCCOCCOCCNS(=O)(=O)c1cc(F)c(O[C@H]2c3cc(Cl)cc(Cl)c3C[C@@H]2N2CCC[C@@H](N)C2)cc1C`, the IC50 in assay [1] and in assay [2] was less than 100 nM each time.

As for `Cc1cc(S(=O)(=O)N[C@@H]2CCN(CCOCCNC(=O)NCCCCNC(=O)NCCOCCN3CC[C@@H](NS(=O)(=O)c4ccc(O[C@H]5c6cc(Cl)cc(C#N)c6C[C@@H]5N(C)C)c(C)c4)C3)C2)ccc1O[C@H]1c2cc(Cl)cc(C#N)c2C[C@@H]1N(C)C`, the IC50 in assay [1] and in assay [2] was less than 100 nM each time.

For the compound `CN(C)[C@@H]1CCCN([C@H]2Cc3c(Cl)cc(Cl)cc3[C@@H]2Oc2ccc(S(=O)(=O)NCCOCCOCCNC(=O)NCCCCNC(=O)NCCOCCOCCNS(=O)(=O)c3ccc(O[C@H]4c5cc(Cl)cc(Cl)c5C[C@@H]4N4CCC[C@@H](N(C)C)C4)c(F)c3)cc2F)C1`, the IC50 in assay [1] and in assay [2] was less than 100 nM each time.

In the case of `Cc1cc(S(=O)(=O)NCCOCCOCCNC(=O)NCCCCNC(=O)NCCOCCOCCNS(=O)(=O)c2ccc(O[C@H]3c4cc(Cl)cc(Cl)c4C[C@@H]3N3CCC[C@@H](N(C)C)C3)c(C)c2)ccc1O[C@H]1c2cc(Cl)cc(Cl)c2C[C@@H]1N1CCC[C@@H](N(C)C)C1`, the IC50 in assay [1] and in assay [2] was less than 100 nM each time.

`CN(C)[C@H]1Cc2c(cc(Cl)cc2C(F)(F)F)[C@@H]1Oc1ccc(S(=O)(=O)NCCOCCOCCNC(=O)NCCCCNC(=O)NCCOCCOCCNS(=O)(=O)c2ccc(O[C@H]3c4cc(Cl)cc(C(F)(F)F)c4C[C@@H]3N(C)C)cc2)cc1`: the IC50 in assay [1] and in assay [2] was more than 1000 nM each time.

On to `Cc1cc(Cl)cc2c1C[C@H](N1CCC[C@@H](N)C1)[C@H]2Oc1ccc(S(=O)(=O)NCCOCCOCCNC(=O)NCCCCNC(=O)NCCOCCOCCNS(=O)(=O)c2ccc(O[C@H]3c4cc(Cl)cc(C)c4C[C@@H]3N3CCC[C@@H](N)C3)cc2)cc1`, for which the IC50 in assay [1] and in assay [2] was less than 100 nM each time.

Consider `CN(C)[C@H]1Cc2c(OC(F)(F)F)cc(Cl)cc2[C@@H]1Oc1ccc(S(=O)(=O)NCCOCCOCCNC(=O)NCCCCNC(=O)NCCOCCOCCNS(=O)(=O)c2ccc(O[C@H]3c4cc(Cl)cc(OC(F)(F)F)c4C[C@@H]3N(C)C)cc2)cc1`, for which the IC50 in assay [1] and in assay [2] was more than 1000 nM in each case.

As to `COc1cc(Cl)cc2c1C[C@H](N1CCC[C@@H](N)C1)[C@H]2Oc1ccc(S(=O)(=O)NCCOCCOCCNC(=O)NCCCCNC(=O)NCCOCCOCCNS(=O)(=O)c2ccc(O[C@H]3c4cc(Cl)cc(OC)c4C[C@@H]3N3CCC[C@@H](N)C3)cc2)cc1`, the IC50 in assay [1] and in assay [2] was less than 100 nM throughout.

Regarding `N#Cc1cc(Cl)cc2c1C[C@H](N1CCC[C@@H](N)C1)[C@H]2Oc1ccc(S(=O)(=O)NCCOCCOCCNC(=O)NCCCCNC(=O)NCCOCCOCCNS(=O)(=O)c2ccc(O[C@H]3c4cc(Cl)cc(C#N)c4C[C@@H]3N3CCC[C@@H](N)C3)cc2)cc1`, the IC50 in assay [1] and in assay [2] was less than 100 nM each time.
